{"source": "patent US10844002B2", "about": "“Lipids and lipid compositions for the delivery of active agents” (priority 2014, dated 2020)", "experiment": "Characterization of LNP formulations: Z average particle diameter and polydispersity index", "assay_type": "physicochemical", "conditions": "LNP formulation", "source_text": "The lipid nanoparticles have a size of about 1 to about 2,500 nm, about 1 to about 1,500 nm, about 1 to about 1,000 nm, in a sub-embodiment about 50 to about 600 nm, in a sub-embodiment about 50 to about 400 nm, in a sub-embodiment about 50 to about 250 nm, and in a sub-embodiment about 50 to about 150 nm. Unless indicated otherwise, all sizes referred to herein are the average sizes (diameters) of the fully formed nanoparticle, as measured by dynamic light scattering on a Malvern Zetasizer. The nanoparticle sample is diluted in phosphate buffered saline (PBS) so that the count rate is approximately 200-400 kcts. The data is presented as a weighted average of the intensity measure."}
{"compound": "CCCCC/C=C\\C/C=C\\CCCCCCCCOc1ccc(OCCCCCCCC/C=C\\C/C=C\\CCCCC)c(COC(=O)CCCN(C)C)c1", "note": "[Example 1, 2,5-bis((9Z,12Z)-octadeca-9,12-dien-1-yloxy)benzyl 4-(dimethylamino)butanoate]", "values": [{"measurement": "Zav (nm)", "setting": "Z average particle diameter", "value": 135.3, "unit": "nm"}, {"measurement": "polydispersity", "setting": "polydispersity index", "value": 0.11}]}
